Consider 31 molecules from US9409884B2 (Rigel Pharmaceuticals, Inc., priority 2012, dated 2016).

In general, pEC50 refers to the negative decadic logarithm of the EC50, by convention in mol/L.

pEC50: −log10 of the molar value.

The target in the first assay is AMPK. The experiment in a line: AMPK activation, enzyme-linked immunosorbent assay. In kind it is biochemical. The settings on record: Table 8, compounds of Table 1. A digest of the protocol: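 AMPK activation by test compounds was measured by enzyme-linked immunosorbent assay.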
For the molecule `N#Cc1ccc(N2CCC(Oc3ccc(C(=O)NC4CCN(Cc5cccnc5)CC4)nc3)CC2)cc1` [Compound 1-6, N-(1-(pyridin-3-ylmethyl)piperidin-4-yl)-5-(1-(4-cyanophenyl)piperidin-4-yloxy)picolinamide], the negative-log EC50 (pEC50) is 6.30 to 7.00.

`O=C(NC1CCN(Cc2ccncc2)CC1)c1cc2cc(OC3CCN(c4ccc(OC(F)(F)F)cc4)CC3)ccc2o1` [Compound 1-78, N-(1-(pyridin-4-ylmethyl)piperidin-4-yl)-5-(1-(4-(trifluoromethoxy)phenyl)piperidin-4-yloxy)benzofuran-2-carboxamide] gave a negative logarithm of the EC50 (pEC50) of more than 7.00.

`N#Cc1ccc(CN2CCC(NC(=O)c3cncc(OC4CCN(c5ccc(C(F)(F)F)cc5)CC4)c3)CC2)cc1` [Compound 1-17, N-(1-(4-cyanobenzyl)piperidin-4-yl)-5-(1-(4-(trifluoromethyl)phenyl)piperidin-4-yloxy)nicotinamide] gave a pEC50 of more than 7.00.

`CS(=O)(=O)c1ccc(CN2CC[C@@H](Oc3ccc4oc(C(=O)NC5CCN(Cc6ccc(C#N)cc6)CC5)cc4c3)[C@H](F)C2)cc1` [Compound 1-167, N-(1-(4-cyanobenzyl)piperidin-4-yl)-5-((3,4-trans)-3-fluoro-1-(4-(methylsulfonyl)benzyl)piperidin-4-yloxy)benzofuran-2-carboxamide] had a negative logarithm of the EC50 (pEC50) of more than 7.00. As for `N#Cc1ccc(CN2CCC(NC(=O)c3cc4ccc(OC5CCN(c6ccc(OC(F)(F)F)cc6)CC5)cc4o3)CC2)cc1` [Compound 1-89, N-(1-(4-cyanobenzyl)piperidin-4-yl)-6-(1-(4-(trifluoromethoxy)phenyl)piperidin-4-yloxy)benzofuran-2-carboxamide], the pEC50 was more than 7.00. Same read-out and setting: as for `O=C(NC1CCN(Cc2cccnc2)CC1)c1sc2cc(OC3CCN(c4ccc(C(F)(F)F)cc4)CC3)ccc2c1Cl` [Compound 1-152, 3-chloro-N-(1-(pyridin-3-ylmethyl)piperidin-4-yl)-6-(1-(4-(trifluoromethyl)phenyl)piperidin-4-yloxy)benzo[b] thiophene-2-carboxamide], the figure is more than 7.00.

The same assay, now with this note: Table 9, compounds of Table 2.
On to `CC(C)(C)OC(=O)N1CCC(NC(=O)c2ccc3[nH]c4c(c3c2)CN(C(=O)OCc2ccccc2)CC4)CC1` [Compound 2-3, benzyl 8-(1-(tert-butoxycarbonyl)piperidin-4-ylcarbamoyl)-3,4-dihydro-1H-pyrido[4,3-b]indole-2(5H)-carboxylate], for which the negative logarithm of the EC50 (pEC50) was 4.30 to 5.00.

Staying with this assay, now noted: Table 10, compounds of Table 3.
As for `O=C(NC1CCN(Cc2ccncc2)CC1)c1nc2ccc(OC3CCN(c4ccc(C(F)(F)F)cc4)CC3)cc2s1` [Compound 3-15, N-(1-(pyridin-4-ylmethyl)piperidin-4-yl)-6-(1-(4-(trifluoromethyl)phenyl)piperidin-4-yloxy)benzo[d]thiazole-2-carboxamide], the pEC50 is 6.00 to 7.00. In turn, `N#Cc1ccc(CN2CCC(NC(=O)c3ccc(C(=O)NC4CCN(c5ccccc5)CC4)cc3)CC2)cc1` [Compound 3-32, N^1-(1-(4-cyanobenzyl)piperidin-4-yl)-N^4-(1-phenylpiperidin-4-yl)terephthalamide] gave a pEC50 of 4.00 to 5.00. Molecule `N#Cc1ccc(CN2CCC(NC(=O)c3ccc(C(=O)NC4CCN(Cc5ccccc5)CC4)cc3)CC2)cc1` [Compound 3-33, N^1-(1-benzylpiperidin-4-yl)-N^4-(1-(4-cyanobenzyl)piperidin-4-yl)terephthalamide] gave a pEC50 of 4.00 to 5.00.

Still in this assay, the particulars now being: Table 12, compounds of Table 5.
Molecule `O=C(NC1CCN(Cc2ccccc2)CC1)c1ccc(OC2CCN(Cc3cccc(C(F)(F)F)c3)CC2)c(F)c1` [Compound 5-59, N-(1-benzylpiperidin-4-yl)-3-fluoro-4-(1-(3-(trifluoromethyl)benzyl)piperidin-4-yloxy)benzamide] had a negative-log EC50 (pEC50) of more than 6.00.

Regarding `O=C(NC1CCN(Cc2ccccc2)CC1)c1ccc(OC2CCN(Cc3ccccc3C(F)(F)F)CC2)c(Cl)c1` [Compound 5-24, N-(1-benzylpiperidin-4-yl)-3-chloro-4-(1-(2-(trifluoromethyl)benzyl)piperidin-4-yloxy)benzamide], the pEC50 is 4.70 to 5.00. Still for that read-out and setting: with `O=C(NC1CCN(Cc2ccccc2)CC1)c1ccc(OC2CCN(Cc3ccncc3)CC2)c(F)c1` [Compound 5-37, N-(1-benzylpiperidin-4-yl)-3-fluoro-4-(1-(pyridin-4-ylmethyl)piperidin-4-yloxy)benzamide] the figure was more than 6.00; with `N#Cc1ccc(CN2CCC(Oc3ccc(C(=O)NC4CCN(Cc5ccccc5)CC4)cc3Cl)CC2)cc1` [Compound 5-67, N-(1-benzylpiperidin-4-yl)-3-chloro-4-(1-(4-cyanobenzyl)piperidin-4-yloxy)benzamide], more than 6.00; with `CC(c1ccccc1)N1CCC(Oc2ccc(C(=O)NC3CCN(Cc4ccccc4)CC3)cc2F)CC1` (stereo not shown) [Compound 5-21, N-(1-benzylpiperidin-4-yl)-3-fluoro-4-(1-(1-phenylethyl)piperidin-4-yloxy)benzamide], 5.00 to 6.00. As to `Cc1ccc(CN2CCC(Oc3ccc(C(=O)NC4CCN(Cc5ccc(F)cc5)CC4)cc3Cl)CC2)cc1` [Compound 5-68, 3-chloro-N-(1-(4-fluorobenzyl)piperidin-4-yl)-4-(1-(4-methylbenzyl)piperidin-4-yloxy)benzamide], the pEC50 is more than 6.00. In turn, `CC(C)(C)OC(=O)NCCCNC(=O)c1ccc(OC2CCN(Cc3ccccc3)CC2)c(Cl)c1` [Compound 5-102, tert-butyl 3-(4-(1-benzylpiperidin-4-yloxy)-3-chlorobenzamido) propylcarbamate] gave a pEC50 of 4.70 to 5.00.

`O=C(NC1CCN(Cc2ccccc2)CC1)c1ccc(OC2CCN(Cc3ccc(C(F)(F)F)cc3)CC2)c(F)c1` [Compound 5-55, N-(1-benzylpiperidin-4-yl)-3-fluoro-4-(1-(4-(trifluoromethyl)benzyl)piperidin-4-yloxy)benzamide] had a negative-log EC50 (pEC50) of more than 6.00. Turning to `O=C(NC1CCN(Cc2ccccc2)CC1)c1ccc(OC2CCN(C(=O)c3ccc(F)cc3)CC2)c(Cl)c1` [Compound 5-22, N-(1-benzylpiperidin-4-yl)-3-chloro-4-(1-(4-fluorobenzoyl)piperidin-4-yloxy)benzamide], the pEC50 was 5.00 to 6.00.

Staying with this assay, now noted: Table 13, compounds of Table 6.
As to `N#Cc1ccc(CN2CCC(NC(=O)c3cc4cc(C(=O)N5CCN(Cc6ccc(C(F)(F)F)cc6)CC5)ccc4o3)CC2)cc1` [Compound 6-127, N-(1-(4-cyanobenzyl)piperidin-4-yl)-5-(4-(4-(trifluoromethyl)benzyl)piperazine-1-carbonyl) benzofuran-2-carboxamide], the pEC50 was more than 7.00. Regarding `CS(=O)(=O)c1cccc(CN2CCN(C(=O)c3ccc4oc(C(=O)NC5CCN(Cc6cccc(OC(F)(F)F)c6)CC5)cc4c3)CC2)c1` [Compound 6-151, 5-(4-(3-(methylsulfonyl)benzyl)piperazine-1-carbonyl)-N-(1-(3-(trifluoromethoxy)benzyl)piperidin-4-yl)benzofuran-2-carboxamide], the negative-log EC50 (pEC50) is more than 7.00.

The molecule `COc1ccc(CN2CCC(NC(=O)c3cc4cc(C(=O)N5CCN(Cc6ccc(S(=O)(=O)N(C)C)cc6)CC5)ccc4o3)CC2)cc1F` [Compound 6-162] had a pEC50 of more than 7.00. Still for that read-out and setting: as for `Cc1cc(CN2CCN(C(=O)c3ccc4oc(C(=O)NC5CCN(Cc6ccc(C#N)cc6)CC5)cc4c3)CC2)ccc1S(C)(=O)=O` [Compound 6-103, N-(1-(4-cyanobenzyl)piperidin-4-yl)-5-(4-(3-methyl-4-(methylsulfonyl)benzyl)piperazine-1-carbonyl) benzofuran-2-carboxamide], the figure is more than 7.00; as for `O=C(Nc1ccc2oc(C(=O)N3CCC(Oc4ccc(C(F)(F)F)cc4)CC3)cc2c1)c1ccc(Oc2ccc(F)cc2)cc1` [Compound 6-24, 4-(4-fluorophenoxy)-N-(2-(4-(4-(trifluoromethyl)phenoxy)piperidine-1-carbonyl)benzofuran-5-yl)benzamide], more than 7.00.

`CS(=O)(=O)c1ccc(CN2CCN(C(=O)c3ccc4oc(C(=O)NC5CCN(Cc6ccc(OC(F)(F)F)c(Cl)c6)CC5)cc4c3)CC2)cc1` [Compound 6-158, N-(1-(3-chloro-4-(trifluoromethoxy)benzyl)piperidin-4-yl)-5-(4-(4-(methylsulfonyl)benzyl)piperazine-1-carbonyl) benzofuran-2-carboxamide] gave a negative-log EC50 (pEC50) of 6.00 to 7.00. The molecule `COc1ccc(CN2CCC(NC(=O)c3cc4cc(C(=O)N5CCN(Cc6ccc(S(=O)(=O)N7CCOCC7)cc6)CC5)ccc4o3)CC2)cc1F` [Compound 6-163, N-(1-(3-fluoro-4-methoxybenzyl)piperidin-4-yl)-5-(4-(4-(morpholinosulfonyl)benzyl)piperazine-1-arbonyl) benzofuran-2-carboxamide] gave a pEC50 of more than 7.00.

The same assay, now with this note: Table 14, compounds of Table 7.
With `COc1ccc(C(=O)C2CCN(C(=O)c3ccc(C(=O)N[C@@H]4CCN(Cc5ccc(C#N)cc5)C[C@H]4F)cn3)CC2)cc1` (single isomer, unassigned) [Compound 7-106], the negative logarithm of the EC50 (pEC50) is more than 6.00. The molecule `O=C(NC1CCN(Cc2ccc(OC(F)(F)F)cc2)C[C@H]1F)c1ccc(C(=O)N2CCC(Oc3ccc(S(=O)(=O)C4CC4)cc3)CC2)nc1` (stereo partly drawn) [Compound 7-48, 6-(4-(4-(cyclopropylsulfonyl)phenoxy)piperidine-1-carbonyl)-N-((3,4- trans)-3-fluoro-1-(4-(trifluoromethoxy)benzyl)piperidin-4-yl)nicotinamide] gave a pEC50 of 5.00 to 6.00.

Molecule `N#Cc1ccc(CN2CCC(NC(=O)c3ccc(C(=O)N4CCC(C(=O)c5ccc(OC(F)(F)F)cc5)CC4)nc3)[C@H](F)C2)cc1` (stereo partly drawn) [Compound 7-71, N-((3,4-trans)-1-(4-cyanobenzyl)-3-fluoropiperidin-4-yl)-6-(4-(4-(trifluoromethoxy)benzoyl)piperidine-1-carbonyl) nicotinamide] gave a negative logarithm of the EC50 (pEC50) of more than 6.00. Consider `CC(=O)c1ccc(Oc2ccc(NC(=O)c3ccc(C(=O)N4CCC(Oc5ccc6c(c5)ncn6C)CC4)nc3)cn2)cc1` [Compound 7-46, N-(6-(4-acetylphenoxy)pyridin-3-yl)-6-(4-(1-methyl-1H-benzo[d]imidazol-5-yloxy)piperidine-1-carbonyl)nicotinamide], for which the negative-log EC50 (pEC50) was 5.00 to 6.00. In turn, `COc1ccc(C(=O)C2CCN(C(=O)c3ccc(C(=O)NC4CCN(Cc5ccc(C#N)cc5)C[C@@H]4C)cn3)CC2)cc1` (stereo partly drawn) [Compound 7-78, N-((3,4-trans)-1-(4-cyanobenzyl)-3-methylpiperidin-4-yl)-6-(4-(4-methoxybenzoyl)piperidine-1-carbonyl)nicotinamide] gave a negative-log EC50 (pEC50) of more than 6.00.
